# From ChEMBL document CHEMBL1130058, “Structure-cytoprotective activity relationship of simple molecules containing an alpha,beta-unsaturated carbonyl system” (1997)
# Organism: Rattus norvegicus
# Assay: Gastric cytoprotective activity in male wistar rat
# Format: functional
row,Compound,Cytoprotective effect
1,C=C(C=O)C1CCC(C)(O)CC1 (centres undefined),0.7
2,COc1cc2ccc(=O)oc2c(O)c1O [FRAXETIN],4.75
3,CC1=CC(=O)CC1,4.3
4,CC1CC(O)=CC(=O)O1 (centres undefined),4.66
5,C=C1CCOC1=O [TULIPALINE A],0.25
6,COC(=O)C=C(C)C,4.5
7,C=C(C=O)C1CC=C(C)CC1 (centres undefined),0.9
8,C/C=C(\C)C(=O)O,5
9,O=C1C=CCC1,1.3
10,C/C=C(/C)C(=O)OC,5
11,O=c1cc(O)c2ccccc2o1 [4-HYDROXYCOUMARINS],4.62
12,O=c1ccc2ccc(O)cc2o1 [UMBELLIFERONE],3.8
13,CC1=CC(=O)C(=C(C)C)CC1,4.3
14,C/C=C(\C)C=O [2-methyl-(E)-2-butenal],4.6
15,O=C1C=CCCO1,0.55
16,C=CC#N [ACRYLONITRILE],3.5
17,C=C(C)C(=O)OC,4.8
18,C#CC(=O)OCC [PROPYNOIC ACID ETHYL ESTER],0.43
19,COC(=O)/C=C/c1ccccc1 [E-METHYL CINNAMATE],2.9
20,C/C=C(\C)C(=O)OCC,4.8
21,COc1cc2c(c3oc(=O)ccc13)OCO2,4.2
22,C/C=C(/C)C(=O)O,3.5
23,O=C(O)/C=C/c1ccoc1,4.6
24,O=C(O)/C=C/c1ccccc1 [CINNAMIC ACID],5
25,C=CC(=O)OCC [ACRYLIC ACID ETHYL ESTER],4.3
26,O=C/C=C/c1ccccc1 [CINNAMALDEHYDE],4.5
27,CCOC(=O)CC(=O)c1ccoc1,4.75
28,C/C=C(\C)C(=O)OC,5
29,O=c1ccc2ccccc2o1 [COUMARIN],4.7
